In publication PMC2932859 (Journal of medicinal chemistry, 2010):
Entries after “also recorded” stand apart in the source; their conditions may differ.

Key:
[1] = Human liver microsomal stability; type: in vitro ADME; conditions: compared with control drug verapamil
P. falciparum ENR = conditions: read-out: IC50 against P. falciparum ENR; cited from earlier work
TgENR = molecular target: T1, TgENR (Toxoplasma gondii, UniProt Q6UCJ9); assay: TgENR inhibitor assay; type: biochemical; conditions: for Inhibition of TgENR, in words: recombinant TgENR enzyme assay
T1 sequence (Q6UCJ9 28-417): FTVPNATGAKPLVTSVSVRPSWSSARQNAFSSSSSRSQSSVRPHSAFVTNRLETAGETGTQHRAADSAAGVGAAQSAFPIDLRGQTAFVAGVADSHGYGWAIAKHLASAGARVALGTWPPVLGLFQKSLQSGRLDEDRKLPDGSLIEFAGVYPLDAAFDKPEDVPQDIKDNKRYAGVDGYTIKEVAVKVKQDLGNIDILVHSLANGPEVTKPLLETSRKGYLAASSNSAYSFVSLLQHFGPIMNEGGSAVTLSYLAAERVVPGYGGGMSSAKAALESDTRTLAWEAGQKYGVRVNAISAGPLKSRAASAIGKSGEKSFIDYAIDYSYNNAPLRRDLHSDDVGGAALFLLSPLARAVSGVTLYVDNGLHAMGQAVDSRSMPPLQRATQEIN

[2] = test system: tachyzoites of RH strain of T. gondii; assay: Inhibition of T. gondii tachyzoites in vitro; type: cell-based, Toxoplasma gondii; conditions: uptake of tritiated uracil
[3] = test system: T. gondii (RH strain, Type 1); assay: Testing of inhibitors in vivo, acute parenteral infection of mice; parameters: species or system Toxoplasma gondii; conditions: for Parasite burden in mice: CD1 mice infected intraperitoneally with 2000 T. gondii, inhibitors intraperitoneally at 10mg/kg, peritoneal cavity, day 5 post-infection, P<0.05; for Efficacy in protecting mice against parasite burden relative to triclosan: higher than triclosan itself
[4] = test system: human foreskin fibroblasts (HFF); assay: Toxicity for host cells; type: cell-based; conditions: uptake of 3H thymidine by nonconfluent HFF
E. coli ENR = conditions: cited from earlier work
S. aureus ENR = conditions: cited from earlier work
[5] = earlier studies; cited from earlier work

| Structure (SMILES) | Inhibition of TgENR, in words (TgENR) | Effect on T. gondii tachyzoites in tissue culture, in words [2] | Toxicity to fibroblasts, in words [4] | also measured |
| --- | --- | --- | --- | --- |
| O=[N+]([O-])c1ccc(Oc2ccc(Cl)cc2O)c(Cl)c1 [Compound 2] | highly active | inhibition of T. gondii tachyzoites | lack of inhibition of fibroblast growth | Intrinsic clearance, metabolic rate in HLM, in words [1]: slower than the control drug verapamil; IC50 (P. falciparum ENR): 200 nM; IC50 (TgENR): 45 nM; Parasite burden in mice [3]: reduce parasite burden; Efficacy in protecting mice against parasite burden relative to triclosan [3]: approximately 5 times |
| Oc1cc(Cl)ccc1Oc1ccc(-c2ccccc2)cc1 [Compound 6] | – | – | – | IC50 (TgENR): > 2000 nM |
| Oc1cc(Cl)ccc1Oc1cccnc1 [Compound 17] | some activity | – | – | – |
| Oc1cc(Cl)ccc1Oc1cnccn1 [Compound 18] | no activity | – | – | – |
| CCCc1ccc(Oc2ccc(C#N)cc2Cl)c(O)c1 [Compound 19] | – | inhibition of T. gondii tachyzoites; also recorded: efficacious | lack of inhibition of fibroblast growth; also recorded: not toxic | Intrinsic clearance, metabolic rate in HLM, in words [1]: slower than the control drug verapamil; Parasite burden in mice [3]: reduce parasite burden; Efficacy in protecting mice against parasite burden relative to triclosan [3]: approximately 5 times |
| CCCc1ccc(Oc2cccc(B(O)O)c2)c(O)c1 [Compound 20, 3-(2-Hydroxy-4-propylphenoxy)phenyl boronic acid] | very effective inhibitor | – | – | – |
| C/C=C/C=C/C(=O)Nc1ccc(Oc2ccc(Cl)cc2O)cc1 [Compound 25, Hexa-2,4-dienoic acid (4-(4-chloro-2-hydroxyphenoxy)-phenyl)amide] | – | lack of inhibition | toxic | – |
| O=c1cc(OCc2ccccc2)ccn1Cc1ccc([N+](=O)[O-])cc1Cl [Compound 39] | low micro molar; also recorded: poor inhibitor | inhibition of T. gondii tachyzoites | lack of inhibition of fibroblast growth | – |
| CN(Cc1cc2ccccc2n1C)C(=O)/C=C/c1ccc(N)nc1 [Compound 50] | moderate activity | – | – | Activity against E. coli ENR, in words (E. coli ENR): very effective; Activity against S. aureus ENR, in words (S. aureus ENR): very effective |
| Oc1cc(Cl)ccc1Oc1ccc(Cl)cc1Cl [Triclosan] | – | – | – | Safety in mice, in words [5]: safe |
